Measured values as given in ChEMBL document CHEMBL2434896, “Carbonic anhydrase inhibitors. Synthesis of heterocyclic 4-substituted pyridine-3-sulfonamide derivatives and their inhibition of the human cytosolic isozymes I and II and transmembrane tumor-associated isozymes IX and XII” (Eur J Med Chem, 2013).
The source made the active and inactive calls. The calls are words filed in the database; no cut-off is given here.

Experiments:
Malme-3M = assay: Growth inhibition of human MALME-3M cells at 10 uM after 48 hrs by sulforhodamine B assay; assay type: functional
LOX IMVI = assay: Growth inhibition of human LOXIMVI cells at 10 uM after 48 hrs by sulforhodamine B assay; assay type: functional; details: read-out: GI
SNB-75 = assay: Growth inhibition of human SNB75 cells at 10 uM after 48 hrs by sulforhodamine B assay; assay type: functional
KM12 = assay: Growth inhibition of human KM12 cells at 10 uM after 48 hrs by sulforhodamine B assay; assay type: functional
SW-620 = assay: Growth inhibition of human SW620 cells at 10 uM after 48 hrs by sulforhodamine B assay; assay type: functional
HT-29 = assay: Growth inhibition of human HT-29 cells at 10 uM after 48 hrs by sulforhodamine B assay; assay type: functional; details: HT-29, 48 h, read-out: GI
HCT-15 = assay: Growth inhibition of human HCT15 cells at 10 uM after 48 hrs by sulforhodamine B assay; assay type: functional; details: HCT-15, 48 h, read-out: GI
HCT-116 = assay: Growth inhibition of human HCT116 cells at 10 uM after 48 hrs by sulforhodamine B assay; assay type: functional; details: HCT-116, 48 h, read-out: GI
COLO 205 = assay: Growth inhibition of human COLO205 cells at 10 uM after 48 hrs by sulforhodamine B assay; assay type: functional
NCI-H522 = assay: Growth inhibition of human NCI-H522 cells at 10 uM after 48 hrs by sulforhodamine B assay; assay type: functional; details: NCI-H522, 48 h, read-out: GI
NCI-H322M = assay: Growth inhibition of human NCI-H322M cells at 10 uM after 48 hrs by sulforhodamine B assay; assay type: functional; details: read-out: GI
NCI-H23 = assay: Growth inhibition of human NCI-H23 cells at 10 uM after 48 hrs by sulforhodamine B assay; assay type: functional; details: NCI-H23, 48 h, read-out: GI
HOP-62 = assay: Growth inhibition of human HOP62 cells at 10 uM after 48 hrs by sulforhodamine B assay; assay type: functional
SR = assay: Growth inhibition of human SR cells at 10 uM after 48 hrs by sulforhodamine B assay; assay type: functional; details: read-out: GI
RPMI-8226 = assay: Growth inhibition of human RPMI8226 cells at 10 uM after 48 hrs by sulforhodamine B assay; assay type: functional; details: RPMI-8226, 48 h, read-out: GI
MOLT-4 = assay: Growth inhibition of human MOLT4 cells at 10 uM after 48 hrs by sulforhodamine B assay; assay type: functional; details: MOLT-4, 48 h, read-out: GI
K562 = assay: Growth inhibition of human K562 cells at 10 uM after 48 hrs by sulforhodamine B assay; assay type: functional; details: K562, 48 h, read-out: GI
HL-60(TB) = assay: Growth inhibition of human HL-60(TB) cells at 10 uM after 48 hrs by sulforhodamine B assay; assay type: functional; details: HL-60, 48 h, read-out: GI
CCRF-CEM = assay: Growth inhibition of human CCRF-CEM cells at 10 uM after 48 hrs by sulforhodamine B assay; assay type: functional; details: read-out: GI
MDA-MB-468 = assay: Growth inhibition of human MDA-MB-468 cells at 10 uM after 48 hrs by sulforhodamine B assay; assay type: functional; details: MDA-MB-468, 48 h, read-out: GI
T47D = assay: Growth inhibition of human T47D cells at 10 uM after 48 hrs by sulforhodamine B assay; assay type: functional; details: read-out: GI
BT-549 = assay: Growth inhibition of human BT549 cells at 10 uM after 48 hrs by sulforhodamine B assay; assay type: functional
Hs-578T = assay: Growth inhibition of human Hs 578T cells at 10 uM after 48 hrs by sulforhodamine B assay; assay type: functional
MDA-MB-231 = assay: Growth inhibition of human MDA-MB-231 cells at 10 uM after 48 hrs by sulforhodamine B assay; assay type: functional; details: MDA-MB-231, 48 h, read-out: GI
MCF7 = assay: Growth inhibition of human MCF7 cells at 10 uM after 48 hrs by sulforhodamine B assay; assay type: functional; details: MCF7, 48 h, read-out: GI
DU-145 = assay: Growth inhibition of human DU145 cells at 10 uM after 48 hrs by sulforhodamine B assay; assay type: functional
PC-3 = assay: Growth inhibition of human PC3 cells at 10 uM after 48 hrs by sulforhodamine B assay; assay type: functional; details: PC-3, 48 h, read-out: GI
TK-10 = assay: Growth inhibition of human TK10 cells at 10 uM after 48 hrs by sulforhodamine B assay; assay type: functional
SN12C = assay: Growth inhibition of human SN12C cells at 10 uM after 48 hrs by sulforhodamine B assay; assay type: functional; details: read-out: GI
RXF 393 = assay: Growth inhibition of human RXF393 cells at 10 uM after 48 hrs by sulforhodamine B assay; assay type: functional
ACHN = assay: Growth inhibition of human ACHN cells at 10 uM after 48 hrs by sulforhodamine B assay; assay type: functional; details: read-out: GI
A498 = assay: Growth inhibition of human A498 cells at 10 uM after 48 hrs by sulforhodamine B assay; assay type: functional
786-0 = assay: Growth inhibition of human 786-0 cells at 10 uM after 48 hrs by sulforhodamine B assay; assay type: functional
OVCAR-5 = assay: Growth inhibition of human OVCAR5 cells at 10 uM after 48 hrs by sulforhodamine B assay; assay type: functional
OVCAR-4 = assay: Growth inhibition of human OVCAR4 cells at 10 uM after 48 hrs by sulforhodamine B assay; assay type: functional; details: OVCAR-4, 48 h, read-out: GI
OVCAR-3 = assay: Growth inhibition of human OVCAR3 cells at 10 uM after 48 hrs by sulforhodamine B assay; assay type: functional
IGROV-1 = assay: Growth inhibition of human IGROV1 cells at 10 uM after 48 hrs by sulforhodamine B assay; assay type: functional; details: IGROV-1, 48 h, read-out: GI
UACC-62 = assay: Growth inhibition of human UACC62 cells at 10 uM after 48 hrs by sulforhodamine B assay; assay type: functional; details: UACC-62, 48 h, read-out: GI
SK-MEL-5 = assay: Growth inhibition of human SK-MEL-5 cells at 10 uM after 48 hrs by sulforhodamine B assay; assay type: functional; details: SK-MEL-5, 48 h, read-out: GI
SK-MEL-28 = assay: Growth inhibition of human SK-MEL-28 cells at 10 uM after 48 hrs by sulforhodamine B assay; assay type: functional, cell-based
SK-MEL-2 = assay: Growth inhibition of human SK-MEL-2 cells at 10 uM after 48 hrs by sulforhodamine B assay; assay type: functional
MDA-MB-435 = assay: Growth inhibition of human MDA-MB-435 cells at 10 uM after 48 hrs by sulforhodamine B assay; assay type: functional; details: MDA-MB-435, 48 h, read-out: GI
M14 = assay: Growth inhibition of human M14 cells at 10 uM after 48 hrs by sulforhodamine B assay; assay type: functional; details: M14, 48 h, read-out: GI

Q: How did the “growth inhibition (GI)” value (Malme-3M) turn out when NS(=O)(=O)c1cnccc1N1CCN(c2ccc(Cl)cc2)CC1 was run?
A: inactive

Q: What about the inhibition of growth at 10 µM (LOX IMVI) of the same compound?
A: 4%

Q: And the “growth inhibition (GI)” value (SNB-75)?
A: inactive

Q: And the “growth inhibition (GI)” value (KM12)?
A: inactive

Q: And the “growth inhibition (GI)” value (SW-620)?
A: inactive

Q: And the inhibition of growth at 10 µM (HT-29)?
A: 7%

Q: And the inhibition of growth at 10 µM (HCT-15)?
A: 5%

Q: And the inhibition of growth at 10 µM (HCT-116)?
A: 5%

Q: What about the “growth inhibition (GI)” value (COLO 205) of the same compound?
A: inactive

Q: And the inhibition of growth at 10 µM (NCI-H522)?
A: 8%

Q: And the inhibition of growth at 10 µM (NCI-H322M)?
A: 11%

Q: What about the inhibition of growth at 10 µM (NCI-H23) of the same compound?
A: 7%

Q: What about the “growth inhibition (GI)” value (HOP-62) of the same compound?
A: inactive

Q: What about the inhibition of growth at 10 µM (SR) of the same compound?
A: 11%

Q: What about the inhibition of growth at 10 µM (RPMI-8226) of the same compound?
A: 25%

Q: What about the inhibition of growth at 10 µM (MOLT-4) of the same compound?
A: 25%

Q: What about the inhibition of growth at 10 µM (K562) of the same compound?
A: 28%

Q: And the inhibition of growth at 10 µM (HL-60(TB))?
A: 1%

Q: And the inhibition of growth at 10 µM (CCRF-CEM)?
A: 17%

Q: And the inhibition of growth at 10 µM (MDA-MB-468)?
A: 31%

Q: What about the inhibition of growth at 10 µM (T47D) of the same compound?
A: 32%

Q: And the “growth inhibition (GI)” value (BT-549)?
A: inactive

Q: And the “growth inhibition (GI)” value (Hs-578T)?
A: inactive

Q: What about the inhibition of growth at 10 µM (MDA-MB-231) of the same compound?
A: 7%

Q: And the inhibition of growth at 10 µM (MCF7)?
A: 7%

Q: What about the “growth inhibition (GI)” value (DU-145) of the same compound?
A: inactive

Q: And the inhibition of growth at 10 µM (PC-3)?
A: 8%

Q: What about the “growth inhibition (GI)” value (TK-10) of the same compound?
A: inactive

Q: What about the inhibition of growth at 10 µM (SN12C) of the same compound?
A: 5%

Q: And the “growth inhibition (GI)” value (RXF 393)?
A: inactive

Q: And the inhibition of growth at 10 µM (ACHN)?
A: 6%

Q: What about the “growth inhibition (GI)” value (A498) of the same compound?
A: inactive

Q: And the “growth inhibition (GI)” value (786-0)?
A: inactive

Q: And the “growth inhibition (GI)” value (OVCAR-5)?
A: inactive

Q: What about the inhibition of growth at 10 µM (OVCAR-4) of the same compound?
A: 28%

Q: And the “growth inhibition (GI)” value (OVCAR-3)?
A: inactive

Q: And the inhibition of growth at 10 µM (IGROV-1)?
A: 10%

Q: What about the inhibition of growth at 10 µM (UACC-62) of the same compound?
A: 16%

Q: And the inhibition of growth at 10 µM (SK-MEL-5)?
A: 28%

Q: And the “growth inhibition (GI)” value (SK-MEL-28)?
A: inactive

Q: What about the “growth inhibition (GI)” value (SK-MEL-2) of the same compound?
A: inactive

Q: And the inhibition of growth at 10 µM (MDA-MB-435)?
A: 1%

Q: What about the inhibition of growth at 10 µM (M14) of the same compound?
A: 1%
